Earlier results in US20110088590A1, “METHOD FOR TREATING WOOD” (priority 2005, published 2011).

Tested on: honey bees and other beneficial insects, fish, aquatic insects, crayfish, and shrimp
Conditions: for many species

SMILES: CC1(C)C(C=C(Cl)Cl)C1C(=O)OCc1cccc(Oc2ccccc2)c1 (stereo not shown) [Permethrin]
- lethal concentration: less than one
